Data as given in ChEMBL document CHEMBL1139978, “Synthesis and radiopharmacological characterization of [11C]AL-438 as a nonsteroidal ligand for imaging brain glucocorticoid receptors” (Bioorg Med Chem Lett, 2007).

Experiments:
[1] = system: Pancreas; test: Biodistribution in corticosterone pretreated Wistar rat pancreas at 20 MBq, iv after60 mins; assay type: ADME, organism-based; settings: in vivo, 1 h
[2] = system: Rattus norvegicus; test: Biodistribution in corticosterone pretreated Wistar rat fat at 20 MBq, iv after 5 mins; assay type: ADME, organism-based, Adipose tissue; settings: in vivo
[3] = system: Heart; test: Biodistribution in Wistar rat heart at 20 MBq, iv after 5 mins; assay type: ADME, organism-based; settings: in vivo
[4] = system: Kidney; test: Biodistribution in corticosterone pretreated Wistar rat kidney at 20 MBq, iv after 60 mins; assay type: ADME, organism-based; settings: in vivo, 1 h
[5] = system: Muscle tissue; test: Biodistribution in Wistar rat muscle at 20 MBq, iv after 60 mins; assay type: ADME, organism-based; settings: in vivo, 1 h
[6] = system: Cerebellum; test: Biodistribution in Wistar rat cerebellum at 20 MBq, iv after 5 mins; assay type: ADME, organism-based; settings: in vivo
[7] = system: Blood; test: Biodistribution in corticosterone pretreated Wistar rat blood at 20 MBq, iv after 60 mins; assay type: ADME, organism-based; settings: in vivo, 1 h
[8] = system: Cerebellum; test: Biodistribution in corticosterone pretreated Wistar rat cerebellum at 20 MBq, iv after 5 mins; assay type: ADME, organism-based; settings: in vivo
[9] = system: Muscle tissue; test: Biodistribution in Wistar rat muscle at 20 MBq, iv after 5 mins; assay type: ADME, organism-based; settings: in vivo
[10] = system: Pancreas; test: Biodistribution in Wistar rat pancreas at 20 MBq, iv after 5 mins; assay type: ADME, organism-based; settings: in vivo
[11] = system: Rattus norvegicus; test: Biodistribution in Wistar rat testis at 20 MBq, iv after 5 mins; assay type: ADME, organism-based; settings: in vivo
[12] = system: Blood; test: Biodistribution in Wistar rat blood at 20 MBq, iv after 5 mins; assay type: ADME, organism-based; settings: in vivo
[13] = system: Rattus norvegicus; test: Biodistribution in Wistar rat testis at 20 MBq, iv after 60 mins; assay type: ADME, organism-based; settings: in vivo, 1 h
[14] = system: Rattus norvegicus; test: Biodistribution in corticosterone pretreated Wistar rat brown fat at 20 MBq, iv after 5 mins; assay type: ADME, organism-based, Brown adipose tissue; settings: in vivo
[15] = system: Muscle tissue; test: Biodistribution in corticosterone pretreated Wistar rat muscle at 20 MBq, iv after 60 mins; assay type: ADME, organism-based; settings: in vivo, 1 h
[16] = system: Cortex; test: Biodistribution in corticosterone pretreated Wistar rat cortex at 20 MBq, iv after 5 mins; assay type: ADME, organism-based; settings: in vivo
[17] = system: Adrenal; test: Biodistribution in Wistar rat adrenal at 20 MBq, iv after 60 mins; assay type: ADME, organism-based, Adrenal tissue; settings: in vivo, 1 h
[18] = system: Pituitary gland; test: Biodistribution in corticosterone pretreated Wistar rat pituitary at 20 MBq, iv after 60 mins; assay type: ADME, organism-based; settings: in vivo, 1 h
[19] = system: Harderian gland; test: Biodistribution in Wistar rat harderian gland at 20 MBq, iv after 60 mins; assay type: ADME, organism-based; settings: in vivo, 1 h
[20] = system: Kidney; test: Biodistribution in Wistar rat kidney at 20 MBq, iv after 60 mins; assay type: ADME, organism-based; settings: in vivo, 1 h
[21] = system: Rattus norvegicus; test: Biodistribution in corticosterone pretreated Wistar rat testis at 20 MBq, iv after 5 mins; assay type: ADME, organism-based; settings: in vivo
[22] = system: Cortex; test: Biodistribution in corticosterone pretreated Wistar rat cortex at 20 MBq, iv after 60 mins; assay type: ADME, organism-based; settings: in vivo, 1 h
[23] = system: Pituitary gland; test: Biodistribution in Wistar rat pituitary at 20 MBq, iv after 60 mins; assay type: ADME, organism-based; settings: in vivo, 1 h
[24] = system: Thymus; test: Biodistribution in Wistar rat thymus at 20 MBq, iv after 60 mins; assay type: ADME, organism-based; settings: in vivo, 1 h
[25] = system: Rattus norvegicus; test: Biodistribution in Wistar rat fat at 20 MBq, iv after 60 mins; assay type: ADME, organism-based, Adipose tissue; settings: in vivo, 1 h
[26] = system: Rattus norvegicus; test: Biodistribution in Wistar rat fat at 20 MBq, iv after 5 mins; assay type: ADME, organism-based, Adipose tissue; settings: in vivo
[27] = system: Thymus; test: Biodistribution in corticosterone pretreated Wistar rat thymus at 20 MBq, iv after 5 mins; assay type: ADME, organism-based; settings: in vivo
[28] = system: Adrenal; test: Biodistribution in Wistar rat adrenal at 20 MBq, iv after 5 mins; assay type: ADME, organism-based, Adrenal tissue; settings: in vivo
[29] = system: Liver; test: Biodistribution in corticosterone pretreated Wistar rat liver at 20 MBq, iv after 60 mins; assay type: ADME, organism-based; settings: in vivo, 1 h
[30] = system: Thymus; test: Biodistribution in Wistar rat thymus at 20 MBq, iv after 5 mins; assay type: ADME, organism-based; settings: in vivo
[31] = system: Adrenal; test: Biodistribution in corticosterone pretreated Wistar rat adrenal at 20 MBq, iv after 60 mins; assay type: ADME, organism-based, Adrenal tissue; settings: in vivo, 1 h
[32] = system: Rattus norvegicus; test: Biodistribution in corticosterone pretreated Wistar rat rest of brain at 20 MBq, iv after 60 mins; assay type: ADME, organism-based; settings: in vivo, 1 h
[33] = system: Rattus norvegicus; test: Biodistribution in Wistar rat brown fat at 20 MBq, iv after 5 mins; assay type: ADME, organism-based, Brown adipose tissue; settings: in vivo
[34] = system: Thymus; test: Biodistribution in corticosterone pretreated Wistar rat thymus at 20 MBq, iv after 60 mins; assay type: ADME, organism-based; settings: in vivo, 1 h
[35] = system: Cortex; test: Biodistribution in Wistar rat cortex at 20 MBq, iv after 60 mins; assay type: ADME, organism-based; settings: in vivo, 1 h
[36] = system: Femur; test: Biodistribution in Wistar rat femur at 20 MBq, iv after 60 mins; assay type: ADME, organism-based; settings: in vivo, 1 h
[37] = system: Spleen; test: Biodistribution in Wistar rat spleen at 20 MBq, iv after 5 mins; assay type: ADME, organism-based; settings: in vivo
[38] = system: Rattus norvegicus; test: Biodistribution in corticosterone pretreated Wistar rat brown fat at 20 MBq, iv after 60 mins; assay type: ADME, organism-based, Brown adipose tissue; settings: in vivo, 1 h
[39] = system: Rattus norvegicus; test: Biodistribution in corticosterone pretreated Wistar rat fat at 20 MBq, iv after 60 mins; assay type: ADME, organism-based, Adipose tissue; settings: in vivo, 1 h
[40] = system: Kidney; test: Biodistribution in corticosterone pretreated Wistar rat kidney at 20 MBq, iv after 5 mins; assay type: ADME, organism-based; settings: in vivo

Q: Which results are given for C=CCC1Oc2cccc(O[11CH3])c2-c2ccc3c(c21)C(C)=CC(C)(C)N3 (stereo not given)?
A: Drug uptake [1]: 1.43 % ID/g; Drug uptake [2]: 1.51 % ID/g; Drug uptake [3]: 1.7 % ID/g; Drug uptake [4]: 1.13 % ID/g; Drug uptake [5]: 0.59 % ID/g; Drug uptake [6]: 1.39 % ID/g; Drug uptake [7]: 0.74 % ID/g; Drug uptake [8]: 1.46 % ID/g; Drug uptake [9]: 0.94 % ID/g; Drug uptake [10]: 2.79 % ID/g; Drug uptake [11]: 0.47 % ID/g; Drug uptake [12]: 0.52 % ID/g; Drug uptake [13]: 0.52 % ID/g; Drug uptake [14]: 5 % ID/g; Drug uptake [15]: 0.52 % ID/g; Drug uptake [16]: 1.55 % ID/g; Drug uptake [17]: 4.4 % ID/g; Drug uptake [18]: 1.76 % ID/g; Drug uptake [19]: 3.35 % ID/g; Drug uptake [20]: 1.19 % ID/g; Drug uptake [21]: 0.43 % ID/g; Drug uptake [22]: 0.74 % ID/g; Drug uptake [23]: 1.77 % ID/g; Drug uptake [24]: 1.48 % ID/g; Drug uptake [25]: 3.11 % ID/g; Drug uptake [26]: 1.19 % ID/g; Drug uptake [27]: 1.46 % ID/g; Drug uptake [28]: 7.63 % ID/g; Drug uptake [29]: 3.84 % ID/g; Drug uptake [30]: 1.57 % ID/g; Drug uptake [31]: 3.8 % ID/g; Drug uptake [32]: 0.61 % ID/g; Drug uptake [33]: 5.22 % ID/g; Drug uptake [34]: 1.6 % ID/g; Drug uptake [35]: 0.6 % ID/g; Drug uptake [36]: 0.88 % ID/g; Drug uptake [37]: 0.97 % ID/g; Drug uptake [38]: 7.44 % ID/g; Drug uptake [39]: 2.43 % ID/g; Drug uptake [40]: 2.06 % ID/g
